6 compounds from ChEMBL document CHEMBL1136559, “Discovery, SAR, synthesis, pharmacokinetic and biochemical characterization of A-192411: a novel fungicidal lipopeptide-(I)” (Bioorg Med Chem Lett, 2003) can be followed below.

Assay type in all cases: functional
Assay [1] relates to Candida albicans. Description: Antifungal activity against Candida albicans ATCC 62376.
A further assay deals with Kluyveromyces marxianus. Description: Antifungal activity against Candida kefyr ATCC 28838.
Assay [2] has as its system Candida albicans. Description: Antifungal activity against Candida albicans CAF-2.
In assay [3] the test system is Candida albicans. Description: Antifungal activity against Candida albicans ATCC 10231.
Another assay has as its system Aspergillus niger. Description: Antifungal activity against Aspergillus niger ATCC 16404.
The next assay has as its system [Candida] zeylanoides. Description: Antifungal activity against Candida zeylanoides NRRL Y-112.
The test system of another assay is Nakaseomyces glabratus. Description: Antifungal activity against Torulopsis glabrata ATCC 15545.
In assay [4] the test system is Candida albicans. Description: Antifungal activity against Candida albicans 579A.
In assay [5] the test system is Candida albicans. Description: Antifungal activity against Candida albicans ATCC 38247.
In a further assay the test system is Naganishia albida. Description: Antifungal activity against Cryptococcus albidus ATCC 34140.
For assay [6], the system named is Candida albicans. Description: Antifungal activity against Candida albicans CCH 442.
Where [7] appears, read: Candida albicans, ATCC 62376, read-out: MIC.
Setting [8] is: Kluyveromyces marxianus, ATCC 28838, read-out: MIC.
[9] abbreviates: Candida albicans, read-out: MIC.
[10] abbreviates: Candida albicans, ATCC 10231, read-out: MIC.
Where [11] appears, read: Aspergillus niger, ATCC 16404, read-out: MIC.
[12] abbreviates: Dujonia zeylanoides, read-out: MIC.
The mark [13] stands for this setting: Nakaseomyces glabratus, ATCC 15545, read-out: MIC.
The mark [14] stands for this setting: Candida albicans, ATCC 38247, read-out: MIC.
The mark [15] stands for this setting: Naganishia albida, ATCC 34140, read-out: MIC.

Molecules are shown by their SMILES. Values after ≈ are worked out from the molar mass of the structure shown. Starred links: 1 amine or outer side, 2 acyl side, 3 side chain; linkers in the order of their positions; H or OH if unused. Positions of bridges follow the written chain, without caps; N, C: chain ends. Non-standard residues stand in square brackets, D forms with d. Residues, ends and D or L forms follow the SMILES beside them. *: point of attachment. pTerphenylCO(4''-OnC5H11) = CCCCCOc1ccc(-c2ccc(-c3ccc(C(=O)*)cc3)cc2)cc1; Pro(cis-4-guanidino) = NC(N)=N[C@@H]1CN[C@H](C(=O)O)C1; hTyr(3-COCH2NH2) = NCC(=O)c1cc(CC[C@H](N)C(=O)O)ccc1O; X7 = CCCCCCCCOc1ccc(-c2ccc(-c3ccc(C(=O)*)cc3)cc2)cc1; X4 = NCCC(=O)c1cc(CC[C@H](N[*:1])C(=O)[*:2])ccc1O; Pro(4S-NH2) = N[C@@H]1CN[C@H](C(=O)O)C1; Hyp = O=C(O)[C@@H]1C[C@@H](O)CN1; Orn = NCCC[C@H](N)C(=O)O

For `CCCCCCCCOc1ccc(-c2ccc(-c3ccc(C(=O)N[C@H]4CCCNC(=O)[C@@H]5C[C@H](N)CN5C(=O)[C@H]([C@@H](C)O)NC(=O)[C@H](CCc5ccc(O)c(C(=O)CN)c5)NC(=O)[C@@H]5CCCN5C(=O)[C@H]([C@@H](C)O)NC4=O)cc3)cc2)cc1` (X7-[Orn]TP[hTyr(3-COCH2NH2)]T[Pro(4S-NH2)]; lactam 1-C), the MIC in the assay with Candida albicans [1] (setting [7]) amounted to 0.78 µg/mL (≈ 0.682 µM); in the assay on Kluyveromyces marxianus (setting [8]), 0.78 µg/mL (≈ 0.682 µM); with Candida albicans [2] (setting [9]), 0.1 µg/mL (≈ 0.0874 µM); in the assay with Candida albicans [3] (setting [10]), 1.56 µg/mL (≈ 1.36 µM); in the assay with Aspergillus niger (setting [11]) it was 25 µg/mL (≈ 21.8 µM); in assay [Candida] zeylanoides (setting [12]) it was 0.78 µg/mL (≈ 0.682 µM). Moreover, the MIC in the assay on Nakaseomyces glabratus (setting [13]) stood at 0.78 µg/mL (≈ 0.682 µM); in the assay with Candida albicans [4] (setting [9]), 0.78 µg/mL (≈ 0.682 µM); in the assay on Candida albicans [5] (setting [14]), 0.78 µg/mL (≈ 0.682 µM); in the assay on Naganishia albida (setting [15]), 12.5 µg/mL (≈ 10.9 µM); in the assay on Candida albicans [6] (setting [9]) it was 0.78 µg/mL (≈ 0.682 µM).

`CCCCCOc1ccc(-c2ccc(-c3ccc(C(=O)N[C@H]4CCCNC(=O)[C@@H]5C[C@H](N=C(N)N)CN5C(=O)[C@H]([C@@H](C)O)NC(=O)[C@H](CCc5ccc(O)c(C(=O)CN)c5)NC(=O)[C@@H]5C[C@@H](O)CN5C(=O)[C@H]([C@@H](C)O)NC4=O)cc3)cc2)cc1` (stereo in doubt; 1): the MIC in the assay on Candida albicans [1] (setting [7]) is 0.2 µg/mL (≈ 0.172 µM); in the assay with Kluyveromyces marxianus (setting [8]) it was 1.56 µg/mL (≈ 1.34 µM); with Candida albicans [2] (setting [9]), 0.2 µg/mL (≈ 0.172 µM); in the assay on Candida albicans [3], 0.2 µg/mL (≈ 0.172 µM); with Aspergillus niger (setting [11]), 6.25 µg/mL (≈ 5.39 µM); in assay [Candida] zeylanoides, 0.39 µg/mL (≈ 0.336 µM). Further, the minimal inhibitory concentration (MIC) was 1.56 µg/mL (≈ 1.34 µM) in the assay on Nakaseomyces glabratus (setting [13]); 0.2 µg/mL (≈ 0.172 µM) in the assay with Candida albicans [4] (setting [9]); 0.2 µg/mL (≈ 0.172 µM) with Candida albicans [5]; 12.5 µg/mL (≈ 10.8 µM) in the assay with Naganishia albida (setting [15]); 0.2 µg/mL (≈ 0.172 µM) in the assay on Candida albicans [6].

For `CCCCCOc1ccc(-c2ccc(-c3ccc(C(=O)N[C@H]4CCCNC(=O)[C@@H]5C[C@H](N=C(N)N)CN5C(=O)[C@H]([C@@H](C)O)NC(=O)[C@H](CCc5ccc(O)c(C(=O)CN)c5)NC(=O)[C@@H]5C[C@@H](O)CN5C(=O)[C@H]([C@@H](C)O)NC4=O)cc3)cc2)cc1` (stereo in doubt; 4), the minimal inhibitory concentration (MIC) against Candida albicans [1] was 0.39 µg/mL (≈ 0.336 µM); in the assay on Kluyveromyces marxianus it was 0.78 µg/mL (≈ 0.672 µM); in the assay on Candida albicans [2], 0.39 µg/mL (≈ 0.336 µM); against Candida albicans [3], 0.78 µg/mL (≈ 0.672 µM); against Aspergillus niger it was 6.25 µg/mL (≈ 5.39 µM); in assay [Candida] zeylanoides it was 1.56 µg/mL (≈ 1.34 µM). Moreover, the MIC against Nakaseomyces glabratus is 1.56 µg/mL (≈ 1.34 µM); in the assay with Candida albicans [4] it was 0.39 µg/mL (≈ 0.336 µM); against Candida albicans [5], 0.78 µg/mL (≈ 0.672 µM); with Naganishia albida, 6.25 µg/mL (≈ 5.39 µM); with Candida albicans [6], 0.78 µg/mL (≈ 0.672 µM).

For `CCCCCOc1ccc(-c2ccc(-c3ccc(C(=O)N[C@H]4CCCNC(=O)[C@@H]5C[C@H](N=C(N)N)CN5C(=O)[C@H]([C@@H](C)O)NC(=O)[C@H](CCc5ccc(O)c(C(=O)CN)c5)NC(=O)[C@@H]5CCCN5C(=O)[C@H]([C@@H](C)O)NC4=O)cc3)cc2)cc1` ({pTerphenylCO(4''-OnC5H11)}-[Orn]TP[hTyr(3-COCH2NH2)]T[Pro(cis-4-guanidino)]; lactam 1-C), the minimal inhibitory concentration (MIC) is 0.2 µg/mL (≈ 0.175 µM) in the assay on Candida albicans [1] (setting [7]); 1.56 µg/mL (≈ 1.36 µM) with Kluyveromyces marxianus (setting [8]); 0.1 µg/mL (≈ 0.0874 µM) in the assay on Candida albicans [2] (setting [9]); 0.39 µg/mL (≈ 0.341 µM) in the assay with Candida albicans [3] (setting [10]); 25 µg/mL (≈ 21.8 µM) with Aspergillus niger (setting [11]); 0.39 µg/mL (≈ 0.341 µM) in assay [Candida] zeylanoides (setting [12]). In addition, the minimum inhibitory concentration (MIC) with Nakaseomyces glabratus (setting [13]) stood at 0.39 µg/mL (≈ 0.341 µM); in the assay on Candida albicans [4] (setting [9]), 0.2 µg/mL (≈ 0.175 µM); in the assay with Candida albicans [5] (setting [14]), 0.39 µg/mL (≈ 0.341 µM); in the assay with Naganishia albida (setting [15]) it was 25 µg/mL (≈ 21.8 µM); in the assay on Candida albicans [6] (setting [9]), 0.2 µg/mL (≈ 0.175 µM).

As for `CCCCCOc1ccc(-c2ccc(-c3ccc(C(=O)N[C@H]4CCCNC(=O)[C@@H]5C[C@H](N=C(N)N)CN5C(=O)[C@H]([C@@H](C)O)NC(=O)[C@H](CCc5ccc(O)c(C(=O)CCN)c5)NC(=O)[C@@H]5C[C@@H](O)CN5C(=O)[C@H]([C@@H](C)O)NC4=O)cc3)cc2)cc1` ({pTerphenylCO(4''-OnC5H11)}-[Orn]T[Hyp][X4]T[Pro(cis-4-guanidino)]; lactam 1-C), the MIC was found to be 0.2 µg/mL (≈ 0.17 µM) in the assay with Candida albicans [1] (setting [7]); 1.56 µg/mL (≈ 1.33 µM) in the assay with Kluyveromyces marxianus (setting [8]); 0.2 µg/mL (≈ 0.17 µM) with Candida albicans [2] (setting [9]); 0.39 µg/mL (≈ 0.332 µM) with Candida albicans [3] (setting [10]); 6.25 µg/mL (≈ 5.32 µM) in the assay with Aspergillus niger (setting [11]); 0.39 µg/mL (≈ 0.332 µM) in assay [Candida] zeylanoides (setting [12]). Moreover, the MIC with Nakaseomyces glabratus (setting [13]) was determined as 1.56 µg/mL (≈ 1.33 µM); in the assay with Candida albicans [4] (setting [9]) it was 0.2 µg/mL (≈ 0.17 µM); with Candida albicans [5] (setting [14]), 0.2 µg/mL (≈ 0.17 µM); in the assay on Naganishia albida (setting [15]) it was 12.5 µg/mL (≈ 10.6 µM); with Candida albicans [6] (setting [9]), 0.2 µg/mL (≈ 0.17 µM).

In the case of `CCCCCOc1ccc(-c2ccc(-c3ccc(C(=O)N[C@H]4CCCNC(=O)[C@@H]5C[C@H](N)CN5C(=O)[C@H]([C@@H](C)O)NC(=O)[C@H](CCc5ccc(O)c(C(=O)CN)c5)NC(=O)[C@@H]5C[C@@H](O)CN5C(=O)[C@H]([C@@H](C)O)NC4=O)cc3)cc2)cc1` ({pTerphenylCO(4''-OnC5H11)}-[Orn]T[Hyp][hTyr(3-COCH2NH2)]T[Pro(4S-NH2)]; lactam 1-C), the minimum inhibitory concentration (MIC) in the assay on Candida albicans [1] (setting [7]) was determined as 0.1 µg/mL (≈ 0.0894 µM); with Kluyveromyces marxianus (setting [8]), 0.78 µg/mL (≈ 0.697 µM); with Candida albicans [2] (setting [9]), 0.1 µg/mL (≈ 0.0894 µM); with Candida albicans [3] (setting [10]) it was 0.1 µg/mL (≈ 0.0894 µM); in the assay on Aspergillus niger (setting [11]) it was 0.2 µg/mL (≈ 0.179 µM); in [Candida] zeylanoides (setting [12]) it was 0.1 µg/mL (≈ 0.0894 µM). The MIC in the assay on Nakaseomyces glabratus (setting [13]) came out at 0.2 µg/mL (≈ 0.179 µM); in the assay with Candida albicans [4] (setting [9]), 0.01 µg/mL (≈ 0.00894 µM); in the assay on Candida albicans [5] (setting [14]), 0.2 µg/mL (≈ 0.179 µM); with Naganishia albida (setting [15]), 3.2 µg/mL (≈ 2.86 µM); in the assay with Candida albicans [6] (setting [9]), 0.01 µg/mL (≈ 0.00894 µM).
